We go through 109 molecules from a melting point compilation (Tetko et al.).

In general, melting point refers to the temperature of the solid-liquid transition. Turning to `CCC(=O)C1CCCCC1C(C)(C)C(=O)O` (centres undefined), the melting point turned out to be 115 °C.

Molecule `N#Cc1ccc(F)cc1C#N` gave a melting point of 101 °C.

The molecule `CC(=O)Oc1ccc(N/C=C2\C(=O)C3(C)CCC2C3(C)C)cc1` (centres undefined) showed a melting point of 222 °C. As to `COc1ccc(C=C2C(=O)OC(C)(C)OC2=O)cc1OC`, the melting point was 164 °C. In the case of `COc1cc2c(cc1OC)C(C)=NCC2` it was 103 to 106 °C.

The molecule `O=C(O)c1ccccc1N=NC1SC(=S)NC1=O` (centres undefined) returned a melting point of 244 to 245 °C.

The molecule `O=[N+]([O-])c1ccc(Cl)nc1` came in with a melting point of 107 °C.

Turning to `CNC(=O)Oc1ccccc1OC(CCl)OC` (centres undefined), the melting point was 80 °C. The result for `N#Cc1ccccc1-n1cccc1` reads 51 °C; that for `ClC=C(Cl)C(Cl)=CCl`, -4 °C. The molecule `O=S(=O)(Cl)c1ccc2c(c1)CCO2` registered a melting point of 84 to 85 °C. `CCCCCCCCCCCCCBr` displayed a melting point of 6.2 °C. In the case of `O=C1c2ccccc2C(=O)c2c1cccc2[N+](=O)[O-]` it was 232 °C; in that of `CC12CCCC1C1CCC3CC(=O)CCC3(C)C1CC2` (centres undefined), 102 °C; in that of `CC(C)NCC(O)COc1ccc(COCCOC(C)C)cc1` (centres undefined), 100 °C. Molecule `Cc1nn(-c2ccccc2)nc1C(=O)NO` yielded a melting point of 160 °C.

The molecule `COc1ccc(C#N)cc1OC` had a melting point of 67 °C. On to `Cc1ccc([N+](=O)[O-])cc1C(=O)O`, for which the melting point worked out at 179 °C. In the case of `CC(=O)Nc1ccccc1-c1cc2ccccc2[nH]1` it was 151 to 152 °C; in that of `NC(=O)c1ccc(F)cc1C(F)(F)F`, 136 °C. On to `CCCCCCC(=O)CCC`, for which the melting point was -9 °C. In the case of `C=C(C)C(=O)CC` it was -69.5 °C; in that of `O=[N+]([O-])c1ccc(-c2nnc3n2CN(c2ccccc2)CS3)cc1`, more than 320 °C; in that of `CC(C)(C)OC(=O)N[C@H](Cc1ccc(F)cc1)C(=O)O`, 130 °C. In the case of `OCCc1ccccc1C(F)(F)F` it was 2 to 3 °C. Take `Clc1ccc(Cc2c(N=Cc3ccc(OCc4ccccc4)cc3)n[nH]c2N=Cc2ccc(OCc3ccccc3)cc2)cc1`: the melting point lay within 145 to 147 °C. In the case of `NC(CP(=O)(O)O)C(=O)O` (centres undefined) it was 227 to 229 °C; in that of `CCCCCCCCCCCCCCCCCl`, 17.9 °C; in that of `CCOC(=O)Cc1csc(=S)[nH]1`, 136 to 144 °C. In the case of `CCOc1c(Br)cc(Br)cc1C=O` it was 87 to 87.5 °C; in that of `O=C(O)C=Cc1cccnc1`, 233 to 237 °C.

As for `CC(=O)OCCOC(C)=O`, the melting point was -31 °C.

On to `CC(C)COc1ccc2ccccc2c1`, for which the melting point came out at 31 °C. In the case of `COc1ccc(-c2csc(/C(C#N)=N\Nc3cc(C)ccc3C)n2)cc1` it was 155 °C; in that of `CC(C)(C)N(NC(=O)c1ccccc1)C(=O)c1ccccc1C(F)(F)F`, 172 °C. In the case of `CC(O)c1cccc(N)c1` (centres undefined) it was 68 °C; in that of `COc1ccc2[nH]c3c(c2c1)CCNC3C` (centres undefined), 150 °C. The result for `O=C(O)Cc1ccsc1` reads 79 °C; that for `CC1(C)CC2C(C(=O)O1)C2(C)C` (centres undefined), 80 to 83 °C. The molecule `O=C(O)c1cc(Br)c(Br)o1` showed a melting point of 171 °C. In the case of `CCCCCCCCCCCCCC(CCCCCCCCCC)CCCCCCCCCC` it was 10.8 °C. In the case of `CC(C)C=C1NC(c2ccccc2)OC1=O` (centres undefined) it was 87 °C; in that of `CC(=O)N1CCC(c2c[nH]c3ccccc23)CC1`, 174 to 176 °C; in that of `O=C(O)CCCCl`, 16 °C. The result for `NC(=O)N=NC(N)=O` reads 195 to 202 °C; that for `CCc1cc(Cc2cc(CC)cc(C(C)(C)C)c2O)c(O)c(C(C)(C)C)c1`, 120 °C.

`N#CCCn1cccc(C(F)(F)F)c1=O` came in with a melting point of 88 to 90 °C. In the case of `NC(=S)c1cccc(Cl)c1Cl` it was 121 to 123 °C; in that of `CCCC(C)(CO)CO`, 62.5 °C.

`COc1cc(Br)cc(C=O)c1O` came in with a melting point of 129 to 131 °C.

In turn, `CCCOC(=O)C1=C(C)NC(=O)NC1c1ccccc1O` (centres undefined) showed a melting point of 189 °C. The result for `N=C(N)N/N=C(\C(=S)Nc1ccc(Br)cc1)c1ccccc1` reads 210 to 211 °C. Turning to `CS(=O)(=O)c1cc(Cl)c(O)c(Cl)c1`, the melting point lay in the range of 223 to 224 °C. In the case of `Cc1nc2ccccc2nc1-c1cc(-c2nc3ccccc3nc2C)c([N+](=O)[O-])cc1[N+](=O)[O-]` it was 239 °C; in that of `Cc1ccc(S(=O)(=O)NCCCN(CCCN(CCCNS(=O)(=O)c2ccc(C)cc2)S(=O)(=O)c2ccc(C)cc2)S(=O)(=O)c2ccc(C)cc2)cc1`, 126 °C; in that of `O=S(=O)(Cl)Cc1ccc(C(F)(F)F)cc1`, 104 to 106 °C.

`COc1ccc2nonc2c1` yielded a melting point of 99 to 102 °C.

Molecule `O=[N+]([O-])c1ccc(SCl)c([N+](=O)[O-])c1` showed a melting point of 99 °C.

In the case of `Cn1cc(Br)c(C(=O)O)n1`, the melting point was 211 to 213 °C. The result for `Cc1ccnc2c1ccc1cccnc12` reads 145 °C. `CC1=CC(=O)C(C)=CC1=O` came in with a melting point of 123 to 126 °C. The result for `O=C1OC(=O)c2cc([N+](=O)[O-])ccc21` reads 115 °C; that for `NC(=S)Cn1cnc(Cl)c1Cl`, 204 to 207 °C. The result for `O=[N+]([O-])c1ccc(C#Cc2ccc([N+](=O)[O-])cc2S(=O)(=O)Oc2ccccc2)c(S(=O)(=O)Oc2ccccc2)c1` reads 185 to 186 °C. The molecule `c1ccc2c(c1)OCCOCCOCCOCCOc1ccccc1OCCOCCOCCOCCO2` yielded a melting point of 104 to 108 °C. As to `Cc1cc(N=Nc2ccccc2)ccc1N=Nc1ccccc1`, the melting point was determined as 109 °C.

The molecule `BrCc1c(CBr)c(CBr)c(CBr)c(CBr)c1CBr` displayed a melting point of 292 °C. `CN(N)C(=O)c1ccccc1N` yielded a melting point of 69 to 71 °C. The result for `FC(F)(F)C1(F)C(F)(F)C(F)(F)C(F)(F)C2(F)C(F)(F)C(F)(F)C(F)(F)C(F)(F)C12F` (centres undefined) reads -70 °C; that for `C[Si](C)(C)O[Si](C)(C)O[Si](C)(C)O[Si](C)(C)O[Si](C)(C)C`, -80 °C; that for `N#CCCCCCCCCC#N`, 7 °C.

`COc1cc(C)c2c(c1)CCC(=Cc1ccccc1)C2=O` showed a melting point of 96 to 97 °C. The result for `Nc1ccc(C(=O)O)c(Cl)c1` reads 210 to 215 °C. In the case of `CCOC(=O)c1sc(SC)c(S(C)(=O)=O)c1N` it was 111 to 113 °C; in that of `ON=Cc1sccc1Oc1ccccc1`, 105 to 106 °C.

Take `CN(CCCC(=O)c1cccnc1)N=O`: the melting point was determined as 67.5 °C. In the case of `Nc1ccc(-c2ccccc2)cn1` it was 135 °C; in that of `O=C(CCBr)N1CCN(C(=O)CCBr)CC1`, 106 °C; in that of `O=C(CS(=O)C(c1ccccc1)c1ccccc1)NO` (centres undefined), 159 °C. The result for `CN(C)c1ccc(P(=O)(c2ccc(N(C)C)cc2)c2ccc(N(C)C)cc2)cc1` reads 275 to 280 °C.

Molecule `O=C(O)c1ccc(F)c(Cl)c1` came in with a melting point of 135 °C. The result for `Clc1cc(-c2ccccn2)nc(-c2ccccn2)c1` reads 150 °C.

Regarding `FC(F)(F)C(Cl)(Cl)Cl`, the melting point was found to be 14.2 °C.

`CCOC(=O)c1cc2c(=O)oc3ccccc3c2[nH]c1=O`: the melting point fell in the range of 313 to 315 °C. On to `C=C1C(C)C2C(Cc3ccccc3)NC(=O)C23OC(=O)CCC(O)CCCC(C)CC=CC3C1O` (centres undefined), for which the melting point is 203 to 205 °C. In the case of `Cc1ccc(C(N)=NO)cc1F` it was 105 to 107 °C; in that of `OCC#Cc1cc(C(F)(F)F)cc(C(F)(F)F)c1`, 58 to 60 °C. Molecule `C=CCC1=C(OC(C)=O)C2=CC=C3C(C)=C(C)C(=O)CC3(C)C2=C(O)C1=O` (centres undefined) registered a melting point of 93 °C. For `CSc1nc(NC(C)C)nc(NC(C)C)n1`, the melting point turned out to be 119 °C. The result for `CC(C)(C)C(=O)C(=O)O` reads 90.5 °C. `CCCCOC(=O)CCCCC(=O)OCCCC` showed a melting point of -32.4 °C.

The molecule `CC1(/C(=N\Nc2ccc([N+](=O)[O-])cc2[N+](=O)[O-])C(=O)O)CCC(C(=O)O)C1(C)C` (centres undefined) yielded a melting point of 191 °C. In the case of `N#Cc1ccc(CCl)cc1` it was 79 °C. Take `Cc1cc(C(=O)O)c(C)n1C`: the melting point is 150 °C.

Molecule `CCOC(=O)C1CCN(c2nc(Cl)nc(Cl)n2)CC1` returned a melting point of 150 °C. In the case of `CC(=O)c1nn(-c2ccccc2)c2cc3c(cc12)c(C(C)=O)nn3-c1ccccc1` it was 310 to 312 °C; in that of `CCNc1nc(Cl)nc(NC(C)(C)C#N)n1`, 168 °C; in that of `NC(=S)C(c1ccccc1)c1ccccc1`, 143 to 146 °C. Turning to `CCCCNCC(O)c1ccc(O)cc1` (centres undefined), the melting point was 124 °C. `Cc1cc(C)c(N=C=S)c(C)c1`: the melting point lay in the range of 63 to 64 °C. On to `CCOC(=O)C(=Cc1cc(N)cc(C=C(C(=O)OCC)C(=O)OCC)c1)C(=O)OCC`, for which the melting point worked out at 174 °C. In the case of `N#CCS(=O)(=O)c1cccs1` it was 84 °C; in that of `CCCCCCCCCCS`, -26 °C. The result for `CC[C@H]1CC[C@H](C(=O)O)CC1` reads 50 °C; that for `CC1=NN(c2ccccc2)C(=O)C1C(=O)C(F)(F)F` (centres undefined), 143 °C. Take `O=C(CC(=O)c1cc(Cl)ccc1O)c1ccccc1`: the melting point was 107 to 112 °C. The result for `CC1(C)OC(=O)C(=Cc2cccs2)C(=O)O1` reads 182 °C.

As for `O=[N+]([O-])c1ccc(CS(=O)(=O)Cl)cc1`, the melting point lay in the range of 91 to 92 °C. In the case of `CCC12CCCN3CCc4c(n(c5ccccc45)C(=O)C1)C32` (single isomer, unassigned; (-)) it was 173 to 177 °C.
